{
  "source": "the NIST ThermoML archive (doi:10.1021/acs.jced.9b00484)",
  "assay": "Boiling temperature at pressure P",
  "conditions": "Liquid, Ebulliometric method (Recirculating still)",
  "note": "± gives the expanded uncertainty stated by the source.",
  "data": [
    {"smiles": "ClCCCl", "note": "[1,2-dichloroethane]", "values": [
      {"measurement": "Boiling temperature at pressure P", "setting": "60.01 kPa", "result": "67.30 ± 0.33", "unit": "°C"},
      {"measurement": "Boiling temperature at pressure P", "setting": "66.68 kPa", "result": "70.70 ± 0.31", "unit": "°C"},
      {"measurement": "Boiling temperature at pressure P", "setting": "73.35 kPa", "result": "73.40 ± 0.29", "unit": "°C"},
      {"measurement": "Boiling temperature at pressure P", "setting": "80.02 kPa", "result": "76.30 ± 0.29", "unit": "°C"},
      {"measurement": "Boiling temperature at pressure P", "setting": "86.69 kPa", "result": "78.90 ± 0.27", "unit": "°C"},
      {"measurement": "Boiling temperature at pressure P", "setting": "101.35 kPa", "result": "84.10 ± 0.27", "unit": "°C"}
    ]}
  ]
}
